According to US7973080B2 (Ambria Dermatology AB, priority 2003, dated 2011):

What was measured:
[1] = tested on: methicillin-resistant Staphylococcus aureus; assay: MIC by standard blood agar dilution technique; conditions: MR fuc +, met +
Excerpt: The following bacteria were investigated: methicillin-resistant Staphylococcus aureus (MSRA), fucidic acid-resistant S. aureus, non-resistant S. pyogenes, coagulation-negative staphylococci (for resistance, see Table 1 below) vancomycin-resistant enterococci (Enterococcus CCUG van A and van B), non-resistant Escherichia coli, Acinetobacter resistant against cefadroxil, nitrofurantin, mecillinam, Serratia maltophilia resistant against most types of antibiotics, Enterobacter (for resistance, see Table 1 below; additionally resistant against cefadroxil and nitrofurantin), non-resistant α-streptococci, non-resistant Streptococcus Group G, Pseudomonas aeruginosa (for resistance, see Table 2 below). Inocula of 10^3 and 10^5 bacteria were used.

male rabbits = conditions: four male rabbits, skin sealed 24 hrs, highest tested dose 20 ml/kg, observed over a fortnight
Method: Topical administration. The penetration of rabbit skin was tested with a cuff model. The hair on the back of four male rabbits weighing from 2.5 to 3.5 kg was removed by shaving, the diol applied to the skin with a pipette, and the skin sealed with polyethylene film for 24 hrs. During the test period the animals were immobilised. After the exposure the animals were observed over a fortnight period.

Question: Which “MIC (% by weight of pentane-1,5-diol)” value ([1]; MRSA CCUG 41787, inoculate size 10^3) does the source give for `OCCCCCO` [pentane-1,5-diol] here?
Answer: Its value is 12.5 % by weight.

Question: What about the “MIC (% by weight of pentane-1,5-diol)” value ([1]; MRSA CCUG 41787, inoculate size 10^5) of the same compound?
Answer: The value was 17.5 % by weight.

Question: And the “MIC (% by weight of pentane-1,5-diol)” value ([1]; MRSA CCUG 45007, inoculate size 10^3)?
Answer: Its value is 10.0 % by weight.

Question: What about the “MIC (% by weight of pentane-1,5-diol)” value ([1]; MRSA CCUG 45007, inoculate size 10^5) of the same compound?
Answer: The value was 12.5 % by weight.

Question: And the “MIC (% by weight of pentane-1,5-diol)” value ([1]; MRSA CCUG 45008, inoculate size 10^3)?
Answer: The value was 12.5 % by weight.

Question: What about the “MIC (% by weight of pentane-1,5-diol)” value ([1]; MRSA CCUG 45008, inoculate size 10^5) of the same compound?
Answer: The value was 15.0 % by weight.

Question: And the “MIC (% by weight of pentane-1,5-diol)” value ([1]; MRSA CCUG 46463, inoculate size 10^3)?
Answer: The value was 10.0 % by weight.

Question: What about the “MIC (% by weight of pentane-1,5-diol)” value ([1]; MRSA CCUG 46463, inoculate size 10^5) of the same compound?
Answer: The value was 15.0 % by weight.

Question: And the “MIC (% by weight of pentane-1,5-diol)” value ([1]; MRSA CCUG 46618, inoculate size 10^3)?
Answer: Its value is 12.5 % by weight.

Question: And the “MIC (% by weight of pentane-1,5-diol)” value ([1]; MRSA CCUG 46618, inoculate size 10^5)?
Answer: The value was 15.0 % by weight.

Question: What about the “MIC (% by weight of pentane-1,5-diol)” value ([1]; MRSA CCUG 46740, inoculate size 10^3) of the same compound?
Answer: The value was 12.5 % by weight.

Question: What about the “MIC (% by weight of pentane-1,5-diol)” value ([1]; MRSA CCUG 46740, inoculate size 10^5) of the same compound?
Answer: Its value is 17.5 % by weight.

Question: And the “MIC (% by weight of pentane-1,5-diol)” value ([1]; MRSA CCUG 46870, inoculate size 10^3)?
Answer: Its value is 10.0 % by weight.

Question: And the “MIC (% by weight of pentane-1,5-diol)” value ([1]; MRSA CCUG 46870, inoculate size 10^5)?
Answer: Its value is 17.5 % by weight.

Question: What about the “MIC (% by weight of pentane-1,5-diol)” value ([1]; MRSA CCUG 47019, inoculate size 10^3) of the same compound?
Answer: Its value is 10.0 % by weight.

Question: What about the “MIC (% by weight of pentane-1,5-diol)” value ([1]; MRSA CCUG 47019, inoculate size 10^5) of the same compound?
Answer: Its value is 17.5 % by weight.

Question: And the “MIC (% by weight of pentane-1,5-diol)” value ([1]; MRSA Cypem, inoculate size 10^3)?
Answer: Its value is 7.5 % by weight.

Question: What about the “MIC (% by weight of pentane-1,5-diol)” value ([1]; MRSA Cypem, inoculate size 10^5) of the same compound?
Answer: The value was 10.0 % by weight.

Question: And the “MIC (% by weight of pentane-1,5-diol)” value ([1]; MRSA PB/SS, inoculate size 10^3)?
Answer: The value was 12.5 % by weight.

Question: And the “MIC (% by weight of pentane-1,5-diol)” value ([1]; MRSA PB/SS, inoculate size 10^5)?
Answer: Its value is 15.0 % by weight.

Question: What about the “survival after topical administration” value (male rabbits) of the same compound?
Answer: The value was “the animals survived”.
